Laboratory results: patent US12538924B2, “Pesticidally active heterocyclic derivatives with sulfur containing substituents” (SYNGENTA CROP PROTECTION AG, priority 2019, dated 2026)

Legend:
Format in all cases: in vivo
[1] = tested on: Diabrotica Balteata (Corn Root Worm); assay: Diabrotica balteata (Corn Root Worm), sprayed maize sprouts; details: 96 h, application rate of 200 ppm, L2 larvae on sprayed maize sprouts, 4 days after infestation, read-out: effect in at least one of the two categories (mortality or growth inhibition)
Method: Example B2: Diabrotica Balteata (Corn Root Worm)
Maize sprouts placed onto an agar layer in 24-well microtiter plates were treated with aqueous test solutions prepared from 10'000 ppm DMSO stock solutions by spraying. After drying, the plates were infested with L2 larvae (6 to 10 per well). The samples were assessed for mortality and growth inhibition in comparison to untreated samples 4 days after infestation.

[2] = tested on: Euschistus heros (Neotropical Brown Stink Bug); assay: Euschistus heros (Neotropical Brown Stink Bug), sprayed soybean leaves; details: 120 h, application rate of 200 ppm, N2 nymphs on sprayed soybean leaves, 5 days after infestation, read-out: effect in at least one of the two categories (mortality or growth inhibition)
Method: Example B3: Euschistus heros (Neotropical Brown Stink Bug)
Soybean leaves on agar in 24-well microtiter plates were sprayed with aqueous test solutions prepared from 10'000 ppm DMSO stock solutions. After drying the leaves were infested with N2 nymphs. The samples were assessed for mortality and growth inhibition in comparison to untreated samples 5 days after infestation.

[3] = tested on: Frankliniella occidentalis (Western Flower Thrips); assay: Frankliniella occidentalis (Western Flower Thrips): Feeding/Contact Activity; details: foliar, 168 h, application rate of 200 ppm, population of mixed ages on sprayed sunflower leaf discs, 7 days after infestation
Method: Example B4: Frankliniella occidentalis (Western Flower Thrips): Feeding/Contact Activity
Sunflower leaf discs were placed on agar in 24-well microtiter plates and sprayed with aqueous test solutions prepared from 10'000 DMSO stock solutions. After drying the leaf discs were infested with a Frankliniella population of mixed ages. The samples were assessed for mortality 7 days after infestation.

[4] = tested on: Plutella xylostella (Diamond Back Moth); assay: Plutella xylostella (Diamond Back Moth), treated artificial diet; details: 192 h, application rate of 200 ppm, eggs on treated artificial diet, 8 days after infestation, read-out: effect in at least one of the two categories (mortality or growth inhibition)
Method: Example B5: Plutella xylostella (Diamond Back Moth)
24-well microtiter plates with artificial diet were treated with aqueous test solutions prepared from 10'000 ppm DMSO stock solutions by pipetting. After drying, Plutella eggs were pipetted through a plastic stencil onto a gel blotting paper and the plate was closed with it. The samples were assessed for mortality and growth inhibition in comparison to untreated samples 8 days after infestation.

[5] = tested on: Myzus persicae (Green Peach Aphid); assay: Myzus persicae (Green Peach Aphid): Feeding/Contact Activity; details: foliar, 144 h, application rate of 200 ppm, aphid population of mixed ages on sprayed sunflower leaf discs, 6 days after infestation
Method: Example B6: Myzus persicae (Green Peach Aphid): Feeding/Contact Activity
Sunflower leaf discs were placed onto agar in a 24-well microtiter plate and sprayed with aqueous test solutions prepared from 10'000 ppm DMSO stock solutions. After drying, the leaf discs were infested with an aphid population of mixed ages. The samples were assessed for mortality 6 days after infestation.

[6] = tested on: Myzus persicae (Green Peach Aphid); assay: Myzus persicae (Green Peach Aphid): Systemic Activity; details: 144 h, test rate of 24 ppm, roots of infested pea seedlings placed into test solutions, 6 days
Method: Example B7: Myzus persicae (Green Peach Aphid): Systemic Activity
Roots of pea seedlings infested with an aphid population of mixed ages were placed directly into aqueous test solutions prepared from 10'000 DMSO stock solutions. The samples were assessed for mortality 6 days after placing seedlings into test solutions.

[7] = tested on: Spodoptera littoralis (Egyptian Cotton Leaf Worm); assay: Spodoptera littoralis (Egyptian Cotton Leaf Worm), sprayed cotton leaf discs; details: foliar, 72 h, application rate of 200 ppm, L1 larvae on sprayed cotton leaf discs, 3 days after infestation, read-out: control (mortality, anti-feeding effect or growth inhibition)
Method: Example B8: Spodoptera littoralis (Egyptian Cotton Leaf Worm)
Cotton leaf discs were placed onto agar in 24-well microtiter plates and sprayed with aqueous test solutions prepared from 10'000 ppm DMSO stock solutions. After drying the leaf discs were infested with five L1 larvae. The samples were assessed for mortality, anti-feeding effect, and growth inhibition in comparison to untreated samples 3 days after infestation. Control of Spodoptera littoralis by a test sample is given when at least one of the categories mortality, anti-feedant effect, and growth inhibition is higher than the untreated sample.

[8] = tested on: Nilaparvata lugens (Brown Plant Hopper); assay: Nilaparvata lugens (Brown Plant Hopper): Larvicide, Feeding/Contact; details: 168 h, application rate of 50 ppm, N3 nymphs on sprayed rice plants, 7 days after the treatment
Method: Example B10: Nilaparvata lugens (Brown Plant Hopper): Larvicide, Feeding/Contact
Rice plants were treated with the diluted test solutions in a spray chamber. After drying plants were infested with ˜20 N3 nymphs. 7 days after the treatment samples were assessed for mortality and growth regulation.

[9] = tested on: Nilaparvata lugens (Brown Plant Hopper); assay: Nilaparvata lugens (Brown Plant Hopper): Igr, Feeding/Contact; details: 360 h, application rate of 50 ppm, sprayed rice plants, N3 nymphs, assessed for effect on F1 generation 15 days after the treatment
Method: Example B11: Nilaparvata lugens (Brown Plant Hopper): Igr, Feeding/Contact
Rice plants were treated with the diluted test solutions in a spray chamber. After drying plants were infested with ˜20 N3 nymphs. 7 days after treatment adults were removed and 15 days after the treatment samples were assessed for effect on F1 generation.

[10] = tested on: Nilaparvata lugens (Brown Plant Hopper); assay: Nilaparvata lugens (Brown Plant Hopper): Larvicide, Systemic into Water; details: 168 h, test rate of 12.5 ppm, rice plants in nutritive solution, N3 nymphs, 7 days after infestation
Method: Example B12: Nilaparvata lugens (Brown Plant Hopper): Larvicide, Systemic into Water
Rice plants cultivated in a nutritive solution were treated with the diluted test solutions into nourishing cultivation system. 1 day after application plants were infested with ˜20 N3 nymphs. 7 days after infestation samples were assessed for mortality and growth regulation.

[11] = tested on: Bemisia tabaci (Cotton White Fly); assay: Bemisia tabaci (Cotton White Fly): Feeding/Contact Activity; details: foliar, 144 h, application rate of 200 ppm, adult white flies on sprayed cotton leaf discs, 6 days after incubation
Method: Example B1: Bemisia tabaci (Cotton White Fly): Feeding/Contact Activity
Cotton leaf discs were placed on agar in 24-well microtiter plates and sprayed with aqueous test solutions prepared from 10'000 ppm DMSO stock solutions. After drying the leaf discs were infested with adult white flies. The samples were checked for mortality 6 days after incubation.

[12] = tested on: Tetranychus urticae (Two-Spotted Spider Mite); assay: Tetranychus urticae (Two-Spotted Spider Mite): Feeding/Contact Activity; details: foliar, 192 h
Method: Example B9: Tetranychus urticae (Two-Spotted Spider Mite): Feeding/Contact Activity
Bean leaf discs on agar in 24-well microtiter plates were sprayed with aqueous test solutions prepared from 10'000 ppm DMSO stock solutions. After drying the leaf discs were infested with a mite population of mixed ages. The samples were assessed for mortality on mixed population (mobile stages) 8 days after infestation.

CCS(=O)(=O)c1cc(N(C)C(C)=O)cnc1N1Cc2cnc(C(F)(F)F)cc2C1=O [Compound P3, N-[5-ethylsulfonyl-6-[1-oxo-6-(trifluoromethyl)-3H-pyrrolo[3,4-c]pyridin-2-yl]-3-pyridyl]-N-methyl-acetamide]
≥ 80%: percent effect (mortality or growth inhibition) at 200 ppm [1] | percent effect (mortality or growth inhibition) at 200 ppm [2] | mortality at 200 ppm [3] | percent effect (mortality or growth inhibition) at 200 ppm [4] | mortality at 200 ppm [5] | mortality at 24 ppm [6] | percent control (mortality, anti-feedant effect or growth inhibition) at 200 ppm [7] | mortality at 50 ppm [8] | mortality at 50 ppm [9] | mortality at 12.5 ppm [10]

CCS(=O)(=O)c1cc(C2(C#N)CC2)cnc1N1Cc2cnc(C(F)(F)F)cc2C1=O [Compound P8, 1-[5-ethylsulfonyl-6-[1-oxo-6-(trifluoromethyl)-3H-pyrrolo[3,4-c]pyridin-2-yl]-3-pyridyl]cyclopropanecarbonitrile]
≥ 80%: mortality at 200 ppm [11] | percent effect (mortality or growth inhibition) at 200 ppm [1] | percent effect (mortality or growth inhibition) at 200 ppm [2] | mortality at 200 ppm [3] | percent effect (mortality or growth inhibition) at 200 ppm [4] | mortality at 200 ppm [5] | mortality at 24 ppm [6] | percent control (mortality, anti-feedant effect or growth inhibition) at 200 ppm [7] | mortality at 50 ppm [8] | mortality at 50 ppm [9] | mortality at 12.5 ppm [10]

CCS(=O)(=O)c1cc(C(F)(F)F)cnc1N1Cc2cnc(C(F)(F)F)cc2C1=O [Compound P10, 2-[3-ethylsulfonyl-5-(trifluoromethyl)-2-pyridyl]-6-(trifluoromethyl)-3H-pyrrolo[3,4-c]pyridin-1-one]
≥ 80%: mortality at 200 ppm [11] | percent effect (mortality or growth inhibition) at 200 ppm [1] | percent effect (mortality or growth inhibition) at 200 ppm [2] | percent effect (mortality or growth inhibition) at 200 ppm [4] | mortality at 200 ppm [5] | mortality at 24 ppm [6] | percent control (mortality, anti-feedant effect or growth inhibition) at 200 ppm [7] | mortality at 50 ppm [8] | mortality at 50 ppm [9] | mortality at 12.5 ppm [10]

CCS(=O)(=O)c1cc(C2(C#N)CC2)cnc1N1Cc2ncc(C(F)(F)F)cc2C1=O [Compound P11, 1-[5-ethylsulfonyl-6-[5-oxo-3-(trifluoromethyl)-7H-pyrrolo[3,4-b]pyridin-6-yl]-3-pyridyl]cyclopropanecarbonitrile]
≥ 80%: mortality at 200 ppm [11] | percent effect (mortality or growth inhibition) at 200 ppm [1] | percent effect (mortality or growth inhibition) at 200 ppm [2] | percent effect (mortality or growth inhibition) at 200 ppm [4] | mortality at 200 ppm [5] | mortality at 24 ppm [6] | percent control (mortality, anti-feedant effect or growth inhibition) at 200 ppm [7] | mortality at 50 ppm [8] | mortality at 50 ppm [9] | mortality at 12.5 ppm [10]

CCS(=O)(=O)c1ccc(N(C)C(=O)C2CC2)nc1N1Cc2cnc(C(F)(F)F)cc2C1=O [Compound P18, N-[5-ethylsulfonyl-6-[1-oxo-6-(trifluoromethyl)-3H-pyrrolo[3,4-c]pyriclin-2-yl]-2-pyridyl]-N-methyl-cyclopropanecarboxamide]
≥ 80%: mortality at 200 ppm [11] | percent effect (mortality or growth inhibition) at 200 ppm [1] | percent effect (mortality or growth inhibition) at 200 ppm [2] | percent effect (mortality or growth inhibition) at 200 ppm [4] | mortality at 200 ppm [5] | mortality at 24 ppm [6] | percent control (mortality, anti-feedant effect or growth inhibition) at 200 ppm [7] | mortality at 50 ppm [8] | mortality at 50 ppm [9] | mortality at 12.5 ppm [10]

N#CC1(c2cnc(N3Cc4cnc(C(F)(F)F)cc4C3=O)c(S(=O)(=O)CC3CC3)c2)CC1 [Compound P28, 1-[5-(cyclopropylmethylsulfonyl)-6-[1-oxo-6-(trifluoromethyl)-3H-pyrrolo[3,4-c]pyridin-2-yl]-3-pyridyl]cyclopropanecarbonitrile]
≥ 80%: mortality at 200 ppm [11] | percent effect (mortality or growth inhibition) at 200 ppm [1] | percent effect (mortality or growth inhibition) at 200 ppm [2] | percent effect (mortality or growth inhibition) at 200 ppm [4] | mortality at 200 ppm [5] | percent control (mortality, anti-feedant effect or growth inhibition) at 200 ppm [7] | mortality at 200 ppm [12]
